Experimental data as given in patent US6825166B2 (priority 2001, dated 2004).

How the values were obtained:
Type in all cases: cell-based
[1] = system: hTERT (telomerase-immortalized normal epithelial cell line); assay: Cytotoxicity (sulforhodamine B growth assay), Protocol A, hTERT cells; settings: 62.5-250 μg/ml added on day of plating, replenished every 3 days
Procedure: (§1) The cell lines selected were KB (human epidermoid carcinoma in the mouth, ATCC #CCL-17), Lu-1 (human lung cancer cell lines, obtained from the Department of Surgical Oncology, University of Illinois, College of Medicine), and hTERT (telomerase-immortalized normal epithelial cell line, Clontech #C4000-1). Various doses of the compounds were evaluated under two treatment protocols. In Protocol A, cultures of each of the KB, Lu and hTERT cells were treated with various doses of the three conjugate compounds from the day of culture onward. In Protocol B, cultures of each of the KB, Lu and hTERT cells were grown to confluence (9 days), and then treated with various doses of the Transferrin-7-paclitaxel conjugate for the duration of the experiment.
(§2) KB was cultured in DMEM (GIBCO) supplemented with 10% fetal bovine serum (FBS), 100 units/ml penicillin G, 100 μg/ml streptomycin sulfate, 0.25 μg/ml amphotericin B (Fungizone) (PSF) (GIBCO) and 1% non-essential amino acids (NAA) (Sigma). Lu was maintained in MEME (GIBCO) supplemented with 10% FBS, PSF, and 1% NAA. hTERT-RPE1 was maintained in DMEM/F-12 (GIBCO) supplemented with 10% FBS+PSF. All cell lines were cultured at 37° C. in 100% humidity with a 5% CO2 atmosphere in air.
(§3) The overall procedures were those as described by Skehan et al., New calorimetric cytotoxicity assay for anticancer-drug screening, J. Natl. Cancer Inst. 82:1107-1112, 1990, and Likhitwitayawuid et al., Cytotoxic and antimalarial bisbenzylisoquinoline alkaloids from Stephania erecta. J. Nat. Prod. 56:30-38, 1993. Cells were typically grown to 60-70% confluence, the medium was changed, and the cells were used for test procedures one day later. Test samples were initially dissolved in sterilized PBS. Serial dilutions were performed using PBS as the solvent, and 10 μl were added to the three wells. PBS (10 μl) was added to control groups. […] The plates were placed on a shaker for 5 minutes, and the absorption was determined at 515 nm using an ELISA plate reader. […]

[2] = system: KB (human epidermoid carcinoma in the mouth); assay: Cytotoxicity (sulforhodamine B growth assay), Protocol A, KB cells; settings: for effect on cell growth (optical density versus time): 62.5-250 μg/ml added on day of plating, replenished every 3 days
Procedure: as §1, §2
(§4) The overall procedures were those as described by Skehan et al., New calorimetric cytotoxicity assay for anticancer-drug screening, J. Natl. Cancer Inst. 82:1107-1112, 1990, and Likhitwitayawuid et al., Cytotoxic and antimalarial bisbenzylisoquinoline alkaloids from Stephania erecta. J. Nat. Prod. 56:30-38, 1993. Cells were typically grown to 60-70% confluence, the medium was changed, and the cells were used for test procedures one day later. Test samples were initially dissolved in sterilized PBS. Serial dilutions were performed using PBS as the solvent, and 10 μl were added to the three wells. PBS (10 μl) was added to control groups. After the plates were prepared, cells were removed from the tissue culture flasks by treatment with trypsin, enumerated, and diluted with fresh media. KB (3×10^4 cells/ml), Lu (5×10^4 cell/ml) and hTERT-RPE1 (4×10^4 cells/ml) cells (in 190 μl of media) were added to the 96-well plates. The plates were incubated at 37° C. in 5% CO2, the cells fixed by addition of 100 μl of cold 20% trichloroacetic acid and incubated at 4° C. for 30 min. The plates were washed with tap water (3×) and dried overnight. The fixed cells were stained 30 min by the addition of 100 μl of 0.4% sulforhodamine B (w/v) dissolved in 1% acetic acid. The plates were washed with 1% acetic acid (3×) and allowed to dry. The bound dye was solubilized by the addition of 10 mM unbuffered Tris base, pH 10 (200 μl/well). The plates were placed on a shaker for 5 minutes, and the absorption was determined at 515 nm using an ELISA plate reader. In each case, a zero-day control was performed by adding an equivalent number of cells to several wells of the 96-well plates and incubating at 37° C. for a period of 30 min. The cells were then fixed with tichloroacetic acid and processed as described above.
The first series of studies were conducted with the Transferrin-3-cholesterol conjugate, the Transferrin-rhodamine123 conjugate and the Transferrin-7-paclitaxel conjugate following Protocol A, in which various concentrations of test compounds ranging from 62.5-250 μg/ml were added on the day of plating, and media were replenished every 3 days, maintaining the same concentrations of the test compounds. As shown by plotting optical density versus time, the Transferrin-3-cholesterol conjugate and the Transferrin-rhodamine123 conjugate were not active with any of the cell lines (FIGS. 5, 6, 8, 9, 11, 12).
Therefore, the experiment was repeated with the Transferrin-7-paclitaxel conjugate with lower concentrations.

[3] = system: Lu-1 (human lung cancer cell lines); assay: Cytotoxicity (sulforhodamine B growth assay), Protocol A, Lu cells; settings: 62.5-250 μg/ml added on day of plating, replenished every 3 days
Procedure: as §1, §2, §3

[4] = system: Lu-1 (human lung cancer cell lines); assay: Cytotoxicity (sulforhodamine B growth assay), Protocol B (confluent cultures), Lu cells; settings: Lu cells grown 9 days before treatment
Procedure: as §1, §2, §3

[5] = system: KB (human epidermoid carcinoma in the mouth); assay: Cytotoxicity (sulforhodamine B growth assay), Protocol B (confluent cultures), KB cells; settings: KB cells grown 9 days before treatment
Procedure: as §1, §2, §3

[6] = system: hTERT (telomerase-immortalized normal epithelial cell line); assay: Cytotoxicity (sulforhodamine B growth assay), Protocol B (confluent cultures), hTERT cells; settings: for effect on cell growth: hTERT cells grown 9 days before treatment
Procedure: as §1, §2, §4

Row | Substance | effect on cell growth (optical density versus time) [1] | effect on cell growth (optical density versus time) [2] | effect on cell growth (optical density versus time) [3] | effect on cell number (reduction relative to that at 50 μg/ml) ([4]; 0.5 μg/ml) | effect on cell number (reduction relative to that at 50 μg/ml) ([4]; 5 μg/ml) | effect on cell number ([4]; 50 μg/ml) | effect on cell number ([5]; 0.5 μg/ml) | effect on cell number ([5]; 5 μg/ml) | effect on cell number ([5]; 50 μg/ml) | selectivity: cancer cells (KB and Lu) versus normal cells (hTERT) ([6]; conclusion from KB, Lu and hTERT results) | effect on cell growth ([6]; 0.5 μg/ml) | effect on cell growth ([6]; 5 μg/ml) | effect on cell growth ([6]; 50 μg/ml) | cell number on day 16 ([6]; hTERT cells, 50 μg/ml, day 16 versus day 9) | effect on cell growth ([2]; 0.5 μg/ml) | effect on cell growth ([2]; 5 μg/ml) | effect on cell growth ([2]; 50 μg/ml)
1 | Transferrin-3-cholesterol conjugate: 3-acyl-pentanal cholesterol linked with Transferrin; non-cytotoxic molecule control conjugate | not active | not active | not active |  |  |  |  |  |  |  |  |  |  |  |  |  | 
2 | Transferrin-7-paclitaxel conjugate: 7-acyl-pentanal paclitaxel linked to Transferrin through Schiff base; 3 paclitaxel per Transferrin | complete inhibition of cell growth | complete inhibition of cell growth | complete inhibition of cell growth | negated | diminished | significant reduction in cell number | cell number paralleled that of the control | significant reduction in cell number | significant reduction in cell number | primarily targeting cancer cells (KB and Lu) while not significantly affecting normal cells (hTERT) | Slight increases in cell growth | Slight increases in cell growth | growth was diminished | approximately the same as on day 9 | no effect on growth | complete growth inhibition | complete growth inhibition
3 | Transferrin-rhodamine123 conjugate: rhodamine123 linked to Transferrin using glutaraldehyde as a linker between free amino groups | not active | not active | not active |  |  |  |  |  |  |  |  |  |  |  |  |  | 
